Measurements published in patent publication US20090117155A1, “TREATMENT OF HIV-1 BY MODULATION OF VPR ACTIVATION OF THE M-CSF PROMOTER” (priority 2006, published 2009).

Experiments:
M-CSF = M-CSF production in culture supernatants of primary human macrophages (ELISA); format: cell-based
Protocol: (§1) Peripheral blood mononuclear cells (PBMC) were isolated from heparinized whole blood or buffy coats acquired from healthy seronegative blood donors by density-gradient centrifugation (Histopaque-1017, Sigma-Aldrich, St. Louis, Mo.). CD14+ monocytes were isolated from prepared PBMC using the Miltenyi AutoMACS system (Miltenyi Biotec, Auburn, Calif.). Briefly, cells were incubated with anti-CD14 monoclonal antibody-coated microbeads (Miltenyi Biotec, Auburn, Calif.) at 4° C. for 15 minutes and run on an AutoMacs separator. […] Recovered CD14+ monocytes were used immediately in transfection experiments. For macrophage preparation, PBMC were incubated in RPMI 1640 (Invitrogen, Carlsbad, Calif.) containing 20% FBS, 10% human AB serum, 2 mM L-glutamine and penicillin (50 U/ml)/streptomycin (50 μg/ml) overnight at 37° C. Adherent cells were washed 3 times with phosphate-buffered saline (PBS), removed with cold PBS 0.02% EDTA and differentiated into macrophages for 6 days in DMEM supplemented with 10% human AB serum and 2 mM L-glutamine. THP1 cells were cultivated in RPMI 1640 supplemented with 10% FBS, 2 mM L-glutamine and penicillin (50 U/ml)/streptomycin (50 μg/ml) (=complete medium).
(§2) THP1 cells (2×106/transfection) were transiently transfected with Effecten reagent (Qiagen, Santa Clara, Calif.) using 1 μg of plasmid DNA, 8 μl enhancer and 10 μl effectene. Cells were incubated in complete medium for 24 hours in 6-well plates. Human primary CD 14+ cells were transfected using the Human Monocyte Nucleofector Kit (Amaxa, Gaithersburg, Md.) according to the manufacturer's instructions. Briefly, 5×10^6 CD 14+ cells were resuspended in 100 μl of nucleofector solution (Amaxa) with 5 μg of DNA and electroporated using the program Y-001. Cells were then transferred in 1.5 ml of Human Monocyte Nucleofector medium (Amaxa) in 24-well plates for 24 hours. Human macrophages were transfected using the Human Macrophage Nucleofector Kit (Amaxa) according to the manufacturer's specifications. In brief, 0.5×10^6 macrophages were resuspended in 100 μl of nucleofector solution (Amaxa) with 5 μg of DNA and electroporated using the program Y-010. Cells were incubated for 24 hours in advanced RPMI (Invitrogen, Carlsbad, Calif.) supplemented with 10% FBS and 2 mM L-glutamine in 12-well plates. One day after transfection, cells were harvested by centrifugation and cell pellets were resuspended in 200 μl of lysis buffer (Promega). Twenty microliters of cell lysate was assayed for luciferase activity using the Luciferase Assay System (Promega). The protein concentration was determined with the BCA Protein Assay Reagent (Pierce, Rockford, Ill.) and the luciferase activity was expressed in Relative Light Unit (RLU) per μg of protein.
M-CSF and IL-6 production in cell culture supernatants were assessed by ELISA according to the manufacturer's instructions (R&D systems, Minneapolis, Minn.).

mammary tumorigenesis = conditions: Bcra1/p53-deficient mice, Poole et al., 2006; cited from earlier work
M-CSF promoter = M-CSF promoter luciferase reporter (pGL3-M-CSF) in primary human macrophages; format: cell-based
Protocol: as §1
The M-CSF promoter (−1310/+48 bp) was amplified from human genomic DNA by PCR with the primers 5′-[…]-3′ (SEQ ID NO: 20) and 5′-[…] […]-3′ (SEQ ID NO: 21). […] Amplification consisted of 30 cycles of 30 s at 94° C., 30 s at 58° C., and 6 min at 72° C. All the constructs were verified by sequencing (Nucleic Acid Facility, Jefferson University, PA USA).
as §2

HIV-1 = conditions: Schafer et al., 2006; cited from earlier work
HIV-1 LTR = conditions: Schafer et al., 2006; cited from earlier work
[1] = concentrations as high as 100 μM, in the absence of Vpr
[2] = primary macrophages co-transfected with pGL3-M-CSF and Vpr vector

CC#C[C@]1(O)CC[C@H]2[C@@H]3CCC4=CC(=O)CCC4=C3[C@@H](c3ccc(N(C)C)cc3)C[C@@]21C [RU486, mifepristone]
inhibition of the Vpr effect on M-CSF production (M-CSF; 50 μM, primary macrophages co-transfected with pGL3-M-CSF and Vpr vector): total inhibition
inhibition at 10 µM (M-CSF; Homo sapiens, Primary macrophage, 10 μM, primary macrophages co-transfected with pGL3-M-CSF and Vpr vector, read-out: inhibition of Vpr induced M-CSF production): > 50%
effect on basal level M-CSF production (M-CSF; [1]): did not completely inhibit
concentration required for inhibition of M-CSF induction by Vpr (M-CSF; primary human macrophages): approximately 10 μM
effect on Vpr-dependent M-CSF production (M-CSF; [2]): dose-dependent decrease
mammary tumorigenesis (mammary tumorigenesis): prevent mammary tumorigenesis
inhibition at 20 µM (M-CSF promoter; Homo sapiens, Primary macrophage, 20 μM, primary macrophages co-transfected with pGL3-M-CSF and Vpr vector, read-out: inhibition of Vpr-dependent M-CSF promoter activity): > 50%
effect on basal level of M-CSF promoter activity (M-CSF promoter; [1]): did not completely inhibit
effect on Vpr-dependent M-CSF promoter activity (M-CSF promoter; [2]): dose-dependent decrease
viral replication in PBMCs (HIV-1): inhibits
Vpr-induced transactivation of the HIV-1 LTR (HIV-1 LTR): inhibits

IL-6: cytokine IL-6 used to treat primary macrophages for 24 hours
M-CSF transcription (M-CSF promoter; primary macrophages treated for 24 hours): 50.1±0.4 RLU/μg of protein

CC(=O)[C@H]1CC[C@H]2[C@@H]3CCC4=CC(=O)CC[C@]4(C)[C@H]3CC[C@]12C [progesterone]
effect on M-CSF promoter activity (M-CSF promoter; primary macrophages transfected with pGL3-M-CSF, different concentrations, no Vpr): no increase
